The supplement of paper PMC8837787

System: Saccharomyces cerevisiae ABC16-Green Monster
Experiment: growth inhibition at single dose (up to 150 µM), below the 70% cut-off for dose-response; higher = more potent
Settings: 18 h; 30 °C; YPD
Summary of the method: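 The entry is percent growth inhibition of drug-sensitive S. cerevisiae ABC16-Green Monster cells. After overnight growth in YPD at 30 °C, cells were diluted to OD600 0.1–0.2 and exposed to each library compound at 150 µM in 200 µl per well, in biological duplicates with untreated cultures beside them, and OD600 was read at 0 h and after 18 h at 30 °C. Any compound under 70% in both replicates was not carried to dose-response.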

| Structure (SMILES) | growth inhibition at single dose [%] |
| --- | --- |
| CCN(CC)S(=O)(=O)N1CCN(C(=O)c2[nH]nc3ccccc23)CC1 | < 70 |
| CC(C)CNC(=O)c1c(N)n(CCc2ccccc2F)c2nc3ccccc3nc12 | < 70 |
| CCOc1ccccc1CN1CCc2nc3cc(C(C)(C)C)nn3c(O)c2C1 | < 70 |
| O=c1nc(CCc2ccc3c(c2)OCCO3)[nH]c2ccccc12 | < 70 |
| COc1ccccc1N1CCN(C(CNS(=O)(=O)c2ccc(Cl)cc2)c2cccnc2)CC1 (centres undefined) | < 70 |
| Cc1[nH]c2ccc(F)cc2c(=O)c1I | < 70 |
| CC(Oc1ccccc1)C(=O)Nc1nc(-c2ccccn2)cs1 (centres undefined) | < 70 |
| Cc1nn(Cc2ccccc2)c2sc(C(=O)Nc3nc4ccccc4[nH]3)cc12 | < 70 |
| Cn1c(C(=O)c2cccc3ccccc23)nc2ccccc21 | < 70 |
| Cc1ccc2c(CSc3nc(N)c(C#N)cc3C#N)cc(=O)oc2c1C | < 70 |
| CC1CCCCN1CCCNC(=O)c1ccc2c(c1)sc1nc(-c3ccc(F)cc3)cn12 (centres undefined) | < 70 |
| CN1CCN(c2cc(-c3ccc(F)cc3)nc(-c3ccncc3)n2)CC1 | < 70 |
| Cc1ccc(S(=O)(=O)N2c3ccc(S(N)(=O)=O)cc3CC2C)cc1 (centres undefined) | < 70 |
| COC(=O)[C@@H](NC(=O)Nc1ccc(-c2nc3ccccc3s2)cc1)C(C)C | < 70 |
| NC(=O)c1cc(-c2ccsc2)ccc1OCCOc1ccccc1 | < 70 |
| O=C(Nc1ccccc1C(=O)Nc1nnc(C(F)(F)F)s1)c1ccccc1 | < 70 |
| CC1c2cccc(O)c2C(O)=C2C(=O)C3(O)C(O)=C(C(N)=O)C(=O)C(N(C)C)C3C(O)C21 (centres undefined) [Doxycycline] | < 70 |
| CO/C=C(/C(=O)OC)c1ccccc1Oc1cc(Oc2ccccc2C#N)ncn1 | < 70 |
| CCOC(=O)c1ccc2nc(-c3ccccc3)cc(O)c2c1 | < 70 |
| COc1ccc(S(=O)(=O)N2CCSc3cc(Cl)ccc32)cc1 | < 70 |
| COc1cc(SC)ccc1C(=O)N1CCCC(C)C1 (centres undefined) | < 70 |

| Structure (SMILES) | growth inhibition at single dose [%] |
| --- | --- |
| Cc1cc(Nc2cccc(C(F)(F)F)c2)n2ncc(C#N)c2n1 | < 70 |
| COc1ccc(S(=O)(=O)N(Cc2ccc(C(=O)NC3CC3)cc2)C2CC2)cc1OC | < 70 |
| O=C(Nc1ccc(-c2nc3ccccc3[nH]2)cc1)C1CCC1 | < 70 |
| COc1ccc(C=C2SC(Nc3ccc(F)cc3)=NC2=O)c(OC)c1 | < 70 |
| CN(C)CCCNc1c2ccccc2nc2ccccc12 | < 70 |
| CC1(C)Cc2c(c(N3CCOCC3)nc3snc(Br)c23)CO1 | < 70 |
| COc1cccc(NC(=O)Cn2c(C)c(C#N)c3ccccc32)c1 | < 70 |
| O=C(COc1ccc2[nH]c3ccccc3c(=O)c2c1)N1c2ccccc2OCC1c1ccccc1 (centres undefined) | < 70 |
| COc1ccc(CC(=O)N2CCN(C)c3nc4ccccc4nc32)cc1F | < 70 |
| CCCCCCOC(=O)C1=C(C)NC(=O)NC1c1ccccc1F (centres undefined) | < 70 |
| CCCCc1c(CCC)c(=N)c2ccccc2n1C | < 70 |
| CCn1c2c(c(=N)c3c1CCC3)CCCC2 | < 70 |
| CC(=O)N1CCN(c2ccc(Oc3ccc(Cl)cc3O)cc2)CC1 | < 70 |
| CC1CCc2[nH]c3ccc(C(=O)Nc4ccccc4N4CCCCC4)cc3c2C1 (centres undefined) | < 70 |
| CC1CCCCN1C(=O)NCCc1coc(-c2ccc(F)cc2)n1 (centres undefined) | < 70 |
| Cc1ccc(Oc2c(C)[nH]c(-c3ccccc3)nc2=O)cc1 | < 70 |
| CC(=O)c1c(C)[nH]c(C(=O)Nc2ccc(Oc3ccccc3Cl)cc2)c1C | < 70 |
| COC(=O)c1ccc(Cl)c2c1C1C=CCC1C(c1cccc3ccccc13)N2 (centres undefined) | < 70 |
| C#CCNS(=O)(=O)c1ccc(C(=O)Nc2ccccc2O)cc1 | < 70 |
| CC(C)(C)c1ccc(C(=O)Nc2ncccc2O)cc1 | < 70 |
| Cc1cccc(C2CC(=O)c3cnn(-c4nc(C)cc(C)n4)c3C2)c1 (centres undefined) | < 70 |

| Structure (SMILES) | growth inhibition at single dose [%] |
| --- | --- |
| Cn1c(=O)c2cc(C(=O)NCCCN3CCCCCC3)sc2c2ccccc21 | < 70 |
| O=C(Nc1ccc(F)c(Cl)c1)Nc1ccc(Cl)c(Cl)c1 | < 70 |
| C=C(C)COc1ccc(-c2n[nH]c(C)c2-c2ccc(OC)c(OC)c2)c(O)c1 | < 70 |
| COc1ccc(CNC(=O)c2cc3c(=O)n4ccccc4nc3n(CCc3ccccc3)c2=N)cc1 | < 70 |
| Cc1ccc2nc(C)c(-c3ccn(Cc4ccccc4)n3)n2c1 | < 70 |
| CCOC(=O)c1[nH]c(C)c(C(=O)CN(C)S(=O)(=O)c2c(C)noc2C)c1C | < 70 |
| Cn1ccnc1Sc1ncnc2sccc12 | < 70 |
| CN1CCN(c2ncnc3c2[nH]c2ccc(Cl)cc23)CC1 | < 70 |
| Brc1c(-c2ccc3c(c2)OCO3)nc2ncccn12 | < 70 |
| Cc1sc(NC(=O)c2ccco2)c(C(c2cccnc2)N2CCC(Cc3ccccc3)CC2)c1C (centres undefined) | < 70 |
| CCN(Cc1ccccc1)C1CCN(Cc2cc(Br)ccc2O)CC1 | < 70 |
| Cc1ccc(Nc2nccc(C(F)(F)F)n2)cc1S(=O)(=O)N(C)C | < 70 |
| O=C(NC1CCCCC1)N1CCN(Cc2ccc3c(c2)OCO3)CC1 | < 70 |
| CCNC(=O)C(C)NC(=O)c1cc(-c2ccccc2)nc2c1cnn2Cc1ccccc1Cl (centres undefined) | < 70 |
| O=C(NC1CCN(c2ccnc3ccccc23)C1)c1cccc(C(F)(F)F)c1 (centres undefined) | < 70 |
| Cc1c(-c2ccccc2)sc2[nH]c(CC(N)=O)nc(=O)c12 | < 70 |
| Cc1ccc(CSCc2ccc(C(=O)NC3CC3)o2)cc1 | < 70 |
| Cc1cc(C)nc(SCC(=O)N2CCN(C(=O)c3ccco3)CC2)n1 | < 70 |
| CCCCN1C(=O)C(=O)N(CC(=O)Nc2sc(Cc3ccc4c(c3)OCO4)c(C)c2C(=O)OCC)C1=O | < 70 |
| CC(C)CN(C(=O)c1ccc(N2CCCC2)c([N+](=O)[O-])c1)c1nc2ccccc2s1 | < 70 |
| CC(Oc1ccc(NC(=O)c2cccs2)cc1)C(=O)c1ccc(Cl)cc1 (centres undefined) | < 70 |

| Structure (SMILES) | growth inhibition at single dose [%] |
| --- | --- |
| O=C(Nc1nccs1)c1ccc(N2CCCCCC2)nc1 | < 70 |
| Oc1ccc(Br)cc1CN1CCN(Cc2ccc(Cl)cc2)CC1 | < 70 |
| Cn1/c(=N/C(=O)c2ccc(=O)[nH]c2)sc2ccccc21 | < 70 |
| CC(C)(C)n1nc(-c2ccccc2)c2c(N)ncnc21 | < 70 |
| O=C(NCCN1CCCC1)c1cc(NCCCCN2CCC(F)(F)CC2)nc2ccc(Cl)cc12 | < 70 |
| COc1cc(NC(=O)COc2ccc3[nH]c4ccccc4c(=O)c3c2)c(OC)cc1Cl | < 70 |
| CC(C)(C)c1cc(C(=O)Nc2cccnc2)cc(C(=O)Nc2cccnc2)c1 | < 70 |
| CNc1cc(C)nc(C2CN(C(=O)c3n[nH]c4ccccc34)CCO2)c1 (centres undefined) | < 70 |
| C=CCn1c(SCc2c(C)noc2C)nc2scc(C3CC3)c2c1=O | < 70 |
| COc1ccc(C(O)(CCC(C)C)C(CN2CCOCC2)c2ccc(Cl)cc2)cc1 (centres undefined) | < 70 |
| CCOc1ccc(OCC(=O)Nc2cc(C)cc(C)c2)cc1 | < 70 |
| CN(C)CCNC(=O)N1CCCN(c2ncnc3cc(-c4ccccc4)sc23)CC1 | < 70 |
| O=c1nc(/C=C/c2ccc(Cl)cc2)oc2ccccc12 | < 70 |
| Cc1nnc(NC(=O)c2cn(-c3ccccc3)nc2-c2ccccc2C)o1 | < 70 |
| N=C(N)N/N=C/c1ccc(Cl)cc1Cl | < 70 |
| COc1ccc(CCNc2ncnc3sc(C)cc23)cc1OC | < 70 |
| Cn1ccnc1SCC(=O)Nc1ccc(C(=O)Nc2ncccc2O)cc1 | < 70 |
| CCOC(=O)c1c(C)n(-c2ccccc2)c2ccc(OC(=O)c3cc(OC)c(OC)c(OC)c3)cc12 | < 70 |
| Cc1ccccc1C(=O)OCC(=O)c1cc(C)n(Cc2ccco2)c1C | < 70 |
| CCOc1cc2c(cc1OCC)C(c1cc(OC)c(O)cc1Cl)NCC2 (centres undefined) | < 70 |
| O=C(NCc1ccoc1)N1CCN(Cc2ccc3c(c2)OCO3)CC1 | < 70 |
